{"source": "patent US20090285766A1", "about": "“Photosensitising Composition and Uses Thereof” (National University of Singapore, priority 2005, published 2009)", "tested_on": "Fibroblast L 929", "assay": "Cytotoxic effect of PDT on fibroblasts (MTT)", "format": "cell-based", "conditions": "100 μM photosensitiser, oxygen carrier, 20 min irradiation, MTT after 24 hours; hypochlorite 100 μL of 5.25%", "experimental": "The experiment described below was performed to assess the cytotoxic effect of PDT in combination with two photosensitisers: […] Sodium hypochlorite is traditionally used to disinfect root canals. Fibroblast L 929 was used in this experiment. Approximately 3.2×10^5 cells were seeded in 4 cm diameter culture dishes in DMEM media supplemented with 10% FCS. Cells were grown by incubating at 37° C., in a carbon dioxide incubator for 24 hours. After the incubation period, 100 μL of ICG (1 mM) was added (the final concentration of ICG was 100 μM). 100 μL of oxygen carrier, perfluorodecahydro naphthalene,] was also added and irradiation was performed for 20 minutes (without shaking). The cells were left in the media for 24 hours under incubation. Later, the supernatant media was removed without disturbing the cell line. The cell layer was washed with 1 mL PBS twice. MTT (0.125 mg % in DMEM), as an indicator of the viable status of cells in the media was added to the Petri dish and incubated at 37° C., for 4 hours. The excess of dye was washed with PBS (2 mL). MTT formed in the Petri dish was extracted and added to 1 mL of DMSO. The optical density at 570 nm was measured. Sodium hypochlorite (100 μL of 5.25%) was used as a control in this experiment. All chemicals were purchased from Sigma Aldrich, St. Louis. Fibroblast L 929 was used in this experiment. […] The optical density at 570 nm was measured. […]"}
{"smiles": "CC1(C)C(/C=C/C=C/C=C/C=C2\\N(CCCCS(=O)(=O)O)c3ccc4ccccc4c3C2(C)C)=[N+](CCCCS(=O)(=O)[O-])c2ccc3ccccc3c21", "note": "[ICG, Indocyanine Green]", "values": [{"measurement": "cytotoxicity (cells surviving after PDT, ranking)", "value": "lesser cytotoxicity"}]}
